Literature values in patent US12029723B2, “Compounds and forms of treatment for female sexual disorders” (GTO PHARMA, LLC., priority 2015, dated 2024).

What was measured:
liver = conditions: a person taking 400 mg daily in herbal substitutes for weight loss
[1] = test system: pre-menopausal women with SIAD related disorders

Compound	liver injury (liver)	share of women with the benefit ([1]; 100 mg daily for a minimum of 28 days) [%]	effect on GPPD (vestibulodynia, dyspareunia) or FOD ([1]; in vivo)	median placebo-corrected increase in satisfying sexual events (SSEs) ([1]; median baseline about 2-3 SSEs per month, six month period)	sedation or hypotension-related adverse events ([1]; vs 9.4% placebo) [%]
Epigallocatechin-3-gallate [EGCG]	acute but reversible liver failure				
O=c1[nH]c2ccccc2n1CCN1CCN(c2cccc(C(F)(F)F)c2)CC1 [Flibanserin, 2H-benzimidazol-2-one, 1,3-dihydro-1-[2-[4-[3(tri-fluoromethyl)phenyl]-1-piperazinyl]ethyl]]		18	no therapeutic effect at all	0.5-1.0 SSEs per month	28.6
